Measurements published in US20090137496A1, “Use of Active Ingredients Containing Hydroxystilbene for Preventing and/or Treating Osteoporosis” (MATSUSHITA ELECTRIC INSUTRIAL CO., LTD., priority 2005, published 2009).
“Also recorded” adds a separate entry of the source.

What was measured:
[1] = Accumulation of ERr 731 ingredients in dog plasma, 100/300/1000 mg/kg/day, day 1; format: in vivo, dog (beagle); details: male and female dogs, ERr 731 100, 300, 1000 mg/kg/day, day 1
Procedure: (§1) These plasma samples were processed as follows: 500 μl of plasma were mixed with 25 μl of an internal standard working solution (2.5 ng/μl rhaponticin or rhapontigenin in methanol) and then mixed with 500 μl of isotonic NaCl solution and 2.5 ml of diethyl ether/butanol (9/1; v/v). After shaking and centrifugation (10 minutes at 4600 rpm), about 2 ml of the supernatant were removed and dried under a stream of nitrogen (at 60° C.). The pellet was taken up in 50 μl of methanol. Addition of 200 μl of distilled water was followed by renewed mixing, and 200 μl were pipetted into autosampler tubes (light-protected). 30 μl of the samples were injected for analysis into an LC-MS/MS system (PE Sciex API 3000). Chromatographic separation of the analytes took place on a Phenomenex Polymer X column with a gradient of an ammonium buffer solution and an acetonitrile/methanol mixture as mobile phase.
On day 1, 5 ml of blood were taken from the animals after 0, 0.5, 1, 2, 4, 8 and 24 hours in each case, and plasma was obtained. The analysis as described in section a) was carried out thereon in order to detect rhaponticin, deoxyrhaponticin, rhapontigenin, deoxyrhapontigenin, resveratrol and piceatannol in blood. The results of the test are depicted in FIG. 2a.

[2] = Dissolving tests with ERr 731 in ethanol and glycerol; format: physicochemical
ERα = target: T1, ERα (Homo sapiens, UniProt P03372); experiment: ERα activation, luciferase reporter gene in U2OS-ERα osteosarcoma cells; format: cell-based; details: U2OS stably transfected with ERα, 24 h
T1 construct: host or cells: U2OS-ERα (human osteosarcoma), stably transfected, pSG5 vector
T1 sequence (P03372 1-595): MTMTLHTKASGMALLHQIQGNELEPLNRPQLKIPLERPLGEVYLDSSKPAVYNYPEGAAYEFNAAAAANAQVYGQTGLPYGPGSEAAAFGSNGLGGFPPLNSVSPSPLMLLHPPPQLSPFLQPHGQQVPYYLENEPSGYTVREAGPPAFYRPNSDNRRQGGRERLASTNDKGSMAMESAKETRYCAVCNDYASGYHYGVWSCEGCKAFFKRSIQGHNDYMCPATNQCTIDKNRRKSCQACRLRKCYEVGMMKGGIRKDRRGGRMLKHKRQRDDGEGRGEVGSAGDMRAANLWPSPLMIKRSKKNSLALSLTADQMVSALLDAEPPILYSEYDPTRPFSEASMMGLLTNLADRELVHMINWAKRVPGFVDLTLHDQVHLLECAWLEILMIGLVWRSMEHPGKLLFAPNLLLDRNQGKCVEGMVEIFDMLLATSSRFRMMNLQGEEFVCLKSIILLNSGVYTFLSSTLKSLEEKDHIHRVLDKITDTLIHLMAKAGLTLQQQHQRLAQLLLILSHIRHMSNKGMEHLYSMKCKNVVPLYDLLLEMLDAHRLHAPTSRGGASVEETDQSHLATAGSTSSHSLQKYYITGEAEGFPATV
Procedure: U2OS cells are human, epithelially organized osteosarcoma cells originally isolated in 1964 from the tibia of a child by J. Ponten and E. Saksela (Ponten and Saksela 1967: Two established in vitro cell lines from human mesenchymal tumours, Int. J. Cancer 2: 434-447).
A suitable medium for the cells is DMEM/F12 (Dulbecco's modified Eagle's Medium), to which 10% fetal calf serum was added for culturing the cells, and 5% fetal calf serum was added for the actual experiment. The latter was previously made steroid-free (DCC medium) using dextran-coated activated carbon (dextran-coated charcoal; DCC). Incubation took place at 37° C. with 5% v/v CO2. In order to ensure comparability between the individual experiments, the passages of the cells used for the experiments never exceeded 20 after thawing from liquid nitrogen.
Besides native U2OS cells, use was made of U2OS-ERα cells (Schering A G, Berlin) which were stably transfected with ERα (pSG5 vector, Stratagene) and merely required transfection with the reporter gene (ERE)2-tk-Luc (pGL3 basic vector, Promega). […]
After the cells were treated with the test or control substances for 24 h it was possible to measure the luciferase activity as reporter gene using a kit from Promega, as stated by the manufacturer. The protein content was determined using the BCA® kit (Sigma).

ERβ = target: T2, ERβ (Homo sapiens, UniProt Q92731); experiment: ERβ activation in the osteosarcoma cell line U2OS; format: cell-based
T2 construct: host or cells: U2OS (human osteosarcoma)
T2 sequence (Q92731 whole entry): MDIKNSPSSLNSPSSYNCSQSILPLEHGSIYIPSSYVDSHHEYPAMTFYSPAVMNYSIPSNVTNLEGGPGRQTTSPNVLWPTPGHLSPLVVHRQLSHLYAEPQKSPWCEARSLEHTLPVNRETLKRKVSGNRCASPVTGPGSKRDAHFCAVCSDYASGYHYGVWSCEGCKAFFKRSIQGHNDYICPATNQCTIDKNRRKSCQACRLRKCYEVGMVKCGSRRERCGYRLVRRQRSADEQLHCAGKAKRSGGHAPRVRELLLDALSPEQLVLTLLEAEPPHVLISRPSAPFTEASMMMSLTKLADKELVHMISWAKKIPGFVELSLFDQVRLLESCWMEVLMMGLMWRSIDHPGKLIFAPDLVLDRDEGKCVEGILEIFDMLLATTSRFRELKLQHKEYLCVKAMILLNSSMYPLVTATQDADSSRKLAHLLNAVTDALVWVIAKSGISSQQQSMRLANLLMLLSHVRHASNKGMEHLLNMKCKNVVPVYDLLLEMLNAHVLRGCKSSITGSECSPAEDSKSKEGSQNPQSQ

[3] = Pharmacokinetics of ERr 731 ingredients in the blood of a volunteer after oral intake (plasma LC-MS/MS); format: in vivo, human; details: for detection in the blood: oral 10 tablets = 40 mg ERr 731, plasma
Procedure: Subsequently, 10 ml of blood was taken at various times (as indicated in FIG. 1) and the plasma was obtained by centrifugation.
as §1

Solubility statements = format: physicochemical
Text: Use is made of this for its isolation. Since, besides other organic acids, the root in particular has a high content of oxalic acid (⅔ in water-soluble and ⅓ in bound form), this must be neutralized during the isolation in order to prevent the pH drifting into the acidic range and thus to inhibit premature precipitation of the rhaponticin. This is achieved by using calcium oxide. The latter is employed as quicklime solution with a pH of 12.4-12.6.
Hydroxypropylmethylcellulose (hypromellose USP) or another gel former is allowed to swell with 2-10% by weight in purified water. […] The amount of glycerol may be up to 50% of the weight of the gel. […] If necessary, preservatives (e.g. sorbic acid and its salts) can be added to the gel. Adjustment of the pH is also possible. As alternative to glycerol it is also possible to use 30-86% by volume ethanol.

[4] = Test A: 200 mg of dry extract in 50 ml of glycerol R
[5] = Test B: 200 mg of dry extract in 50 ml of ethanol 30% R
[6] = Test C: 200 mg of dry extract in 50 ml of ethanol 50% R
[7] = Test D: 200 mg of dry extract in 50 ml of ethanol 86% R

Row | detection / accumulation (AUC 0-24 h) in dog plasma [1] | content found in solution [2, 4] | dissolved, of theory [2, 4] | content found in solution [2, 5] | dissolved, of theory [2, 5] | content found in solution [2, 6] | dissolved, of theory [2, 6] | content found in solution [2, 7] | dissolved, of theory [2, 7] | time of maximum in the blood ([3]; oral 40 mg ERr 731) | detection in the blood [3] | solubility in aqueous solutions with an alkaline pH range (Solubility statements; alkaline pH) | behaviour in the acidic pH range (Solubility statements; pH 3.4-3.6) | SMILES | activation of ER-α (ERα) | activation of ERβ (ERβ)
1 | dose-dependent accumulation | 27.1% deoxyrhaponticin | (90.6% of theory) | 25.2% deoxyrhaponticin | (84.2% of theory) | 29.0% deoxyrhaponticin | (97.0% of theory) | 29.5% deoxyrhaponticin | (98.7% of theory) |  |  |  |  | COc1ccc(/C=C/c2cc(O)cc(O[C@@H]3O[C@H](CO)[C@@H](O)[C@H](O)[C@H]3O)c2)cc1 [deoxyrhaponticin, 3,5′-Dihydroxy-4′-methoxystilbene 3-O-β-D-glucopyranoside] |  | 
2 |  |  |  |  |  |  |  |  |  |  |  |  |  | Oc1cc(O)cc(/C=C/c2ccc(O)c(O)c2)c1 [piceatannol, Piceatannol (astringenin)] | no significant effects; also recorded: no activation | activate relatively specifically only the ERβ
3 |  |  |  |  |  |  |  |  |  |  |  |  |  | Oc1ccc(/C=C/c2cc(O)cc(O)c2)cc1 [resveratrol, Resveratrol] | no significant effects; also recorded: no activation | 
4 | dose-dependent accumulation | 55.1% rhaponticin | (89.0% of theory) | 52.2% rhaponticin | (84.3% of theory) | 58.8% rhaponticin | (95.0% of theory) | 59.8% rhaponticin | (96.6% of theory) | 3 to 4 h | detected; also recorded: detectable | readily soluble | precipitated | COc1ccc(C=Cc2cc(O)cc(O[C@@H]3O[C@H](CO)[C@@H](O)[C@H](O)[C@H]3O)c2)cc1O [rhaponticin, 3,3′,5-Trihydroxy-4′-methoxystilbene 3-O-β-D-glucopyranoside] |  | 
5 | undetectable |  |  |  |  |  |  |  |  |  | could not be found and not |  |  | COc1ccc(/C=C/c2cc(O)cc(O)c2)cc1O [rhapontigenin, 3,3′,5-Trihydroxy-4′-methoxystilbene] |  | 
